Assay results as given in ChEMBL document CHEMBL4376810, “Bioactive Secondary Metabolites from Bacillus subtilis: A Comprehensive Review” (2019).
Converted amounts (≈) assume the structure as drawn. Non-standard residues stand in square brackets, D forms with d. Residues, ends and D or L forms follow the SMILES beside them. *: point of attachment. Tridecanoyl(3R-OH,11-Me) = CCC(C)CCCCCCC[C@@H](O)CC(=O)*; X1 = CCC(C)CC(C)CCCCC[C@@H](O)CC(=O)*

Assays:
Streptococcus pneumoniae = assay: Antibacterial activity against Streptococcus pneumoniae by broth microdilution method; type: functional
Staphylococcus aureus [1] = assay: Antibacterial activity against oxacillin-resistant Staphylococcus aureus by broth microdilution method; type: functional
[2] = system: Staphylococcus epidermidis; assay: Antibacterial activity against Staphylococcus epidermidis by broth microdilution method; type: functional
Staphylococcus aureus [3] = assay: Antibacterial activity against methicillin-resistant Staphylococcus aureus incubated for 18 hrs by agar dilution assay; type: functional
Salmonella typhimurium = assay: Antibacterial activity against Salmonella typhimurium incubated for 18 hrs by agar dilution assay; type: functional, Salmonella enterica subsp. enterica serovar Typhimurium; conditions: Salmonella enterica
Morganella morganii = assay: Antibacterial activity against streptomycin-resistant Morganella morganii incubated for 18 hrs by agar dilution assay; type: functional
Staphylococcus aureus [4] = assay: Antibacterial activity against methicillin-resistant Staphylococcus aureus; type: functional
Rhizoctonia solani = assay: Antifungal activity against Rhizoctonia solani assessed as inhibition of fungal growth incubated for 48 hrs by standard broth dilution assay; type: functional
Colletotrichum acutatum = assay: Antifungal activity against Colletotrichum acutatum assessed as inhibition of fungal growth incubated for 48 hrs by standard broth dilution assay; type: functional
Botrytis cinerea = assay: Antifungal activity against Botrytis cinerea assessed as inhibition of fungal growth incubated for 48 hrs by standard broth dilution assay; type: functional
Micrococcus luteus = assay: Antibacterial activity against Micrococcus luteus incubated for 24 hrs by broth microdilution method; type: functional
Staphylococcus aureus [5] = assay: Antibacterial activity against methicillin-resistant Staphylococcus aureus incubated for 24 hrs by broth microdilution method; type: functional
Bacillus pumilus = assay: Antibacterial activity against Bacillus pumilus incubated for 24 hrs by broth microdilution method; type: functional
Staphylococcus aureus [6] = assay: Antibacterial activity against Staphylococcus aureus; type: functional

CC(C)C[C@H](NC(=O)[C@H]1OCN[C@@H](CC(N)=O)[C@@H]1O)[C@@H]1Cc2cccc(O)c2C(=O)O1 showed an MIC (Streptococcus pneumoniae) of 0.5 to 2 µg/mL (≈ 1.15 to 4.59 µM), an MIC (Staphylococcus aureus [1]) of 0.5 to 2 µg/mL (≈ 1.15 to 4.59 µM) and an MIC [2] of 0.5 to 2 µg/mL (≈ 1.15 to 4.59 µM).
Compound C=C/C=C(\C)CCC1CCC/C=C\C=C(\C)C(OP(=O)(O)O)CCC\C=C/C=C\C=C\C=C\C(O)C(C)C(=C)CC(=O)O1 (stereo not drawn) has an MIC (Staphylococcus aureus [3]) of 2 to 32 µg/mL (≈ 3.25 to 52.1 µM), an MIC (Salmonella typhimurium) of 2 to 32 µg/mL (≈ 3.25 to 52.1 µM) and an MIC (Morganella morganii) of 2 to 32 µg/mL (≈ 3.25 to 52.1 µM).
Work on CCCCCCCCCCCCC(=O)N[C@@H]1C(=O)N[C@H](CCC(N)=O)C(=O)N[C@@H](CC(=O)O)C(=O)NCC(=O)N[C@@H](CC(N)=O)C(=O)N[C@@H](CC(=O)O)C(=O)NCC(=O)N[C@@H](Cc2ccc(O)cc2)C(=O)N[C@@H](C(C)C)C(=O)OC1C (stereo partly drawn) yielded an MIC (Staphylococcus aureus [4]) of 20 µg/mL (≈ 17.4 µM).
CCC(C)CCCCCCC[C@@H](O)CC(=O)N[C@@H](CCC(=O)O)C(=O)N[C@@H](CC(C)C)C(=O)N[C@@H](CC(C)C)C(=O)N[C@@H](C(=O)N[C@@H](CC(=O)O)C(=O)N[C@@H](CC(C)C)C(=O)N[C@@H](CC(C)C)C(=O)O)C(C)C (stereo partly drawn) ({Tridecanoyl(3R-OH,11-Me)}-ELL[dV]DLL-OH) gave an MIC (Rhizoctonia solani) of 4 to 8 µg/mL (≈ 3.84 to 7.69 µM), an MIC (Colletotrichum acutatum) of 4 to 8 µg/mL (≈ 3.84 to 7.69 µM) and an MIC (Botrytis cinerea) of 4 to 8 µg/mL (≈ 3.84 to 7.69 µM).
Compound CCCCCCCCCCCC(=O)N[C@@H]1C(=O)N[C@H](CCC(N)=O)C(=O)N[C@@H](CC(=O)O)C(=O)NCC(=O)N[C@@H](CC(N)=O)C(=O)N[C@@H](CC(=O)O)C(=O)NCC(=O)N[C@@H](Cc2ccc(O)cc2)C(=O)N[C@@H](C(C)C)C(=O)OC1C (stereo partly drawn) has an MIC (Staphylococcus aureus [4]) of 20 µg/mL (≈ 17.7 µM).
In the case of CC1=CC2C(OC3OC(C)C(O)C(=O)C3O)CCCC2C2C(=O)OC(=O)/C(C)=C3/CC(O)C/C3=C/2C1/C=C/C=C/C=C(\C)CC(C)CC(O)C(C)C(=O)O (stereo not drawn), the MIC (Micrococcus luteus) is reported as < 7 µg/mL, the MIC (Staphylococcus aureus [5]) is reported as < 7 µg/mL and the MIC (Bacillus pumilus) is reported as < 7 µg/mL.
C=C/C=C(\C)CCC1CCC/C=C\C=C(\C)C(OP(=O)(O)O)CCC\C=C/C=C\C=C\C=C\CC(C)C(=C)CC(=O)O1 (stereo not drawn) showed an MIC (Staphylococcus aureus [3]) of 2 to 32 µg/mL (≈ 3.34 to 53.4 µM), an MIC (Salmonella typhimurium) of 2 to 32 µg/mL (≈ 3.34 to 53.4 µM) and an MIC (Morganella morganii) of 2 to 32 µg/mL (≈ 3.34 to 53.4 µM).
In the case of CC1=CC2C(OC3OC(C)C(O)C(O)C3O)CCCC2C2C(=O)OC(=O)/C(C)=C3/CC(O)C/C3=C/2C1/C=C/C=C/C=C(\C)CC(C)CC(O)C(C)C(=O)O (stereo not drawn), the MIC (Micrococcus luteus) is reported as < 7 µg/mL, the MIC (Staphylococcus aureus [5]) is reported as < 7 µg/mL and the MIC (Bacillus pumilus) is reported as < 7 µg/mL.
With CC(C)C[C@H](NC(=O)[C@@H](O)[C@@H](O)[C@@H](N)CC(N)=O)[C@@H]1Cc2cccc(O)c2C(=O)O1 the MIC (Staphylococcus aureus [6]) was < 1 µg/mL.
Compound CCC(C)CC(C)CCCCC[C@@H](O)CC(=O)N[C@@H](CCC(=O)O)C(=O)N[C@@H](CC(C)C)C(=O)N[C@@H](CC(C)C)C(=O)N[C@@H](C(=O)N[C@@H](CC(=O)O)C(=O)N[C@@H](CC(C)C)C(=O)N[C@@H](CC(C)C)C(=O)O)C(C)C (stereo partly drawn) (X1-ELL[dV]DLL-OH) has an MIC (Rhizoctonia solani) of 4 to 8 µg/mL (≈ 3.79 to 7.59 µM), an MIC (Colletotrichum acutatum) of 4 to 8 µg/mL (≈ 3.79 to 7.59 µM) and an MIC (Botrytis cinerea) of 4 to 8 µg/mL (≈ 3.79 to 7.59 µM).
CC1=CC2C(OC3OC(C)C(O)C(=O)C3O)CCCC2C2C(=O)OC(=O)/C=C3/CC(O)C/C3=C/2C1/C=C/C=C/C=C(\C)CC(C)CC(O)C(C)C(=O)O (stereo not drawn) was tested, and the MIC (Micrococcus luteus) was < 7 µg/mL, the MIC (Staphylococcus aureus [5]) was < 7 µg/mL and the MIC (Bacillus pumilus) was < 7 µg/mL.
CCCCCCCCCCCCCC(=O)N[C@@H]1C(=O)N[C@H](CCC(N)=O)C(=O)N[C@@H](CC(=O)O)C(=O)NCC(=O)N[C@@H](CC(N)=O)C(=O)N[C@@H](CC(=O)O)C(=O)NCC(=O)N[C@@H](Cc2ccc(O)cc2)C(=O)N[C@@H](C(C)C)C(=O)OC1C (stereo partly drawn) gave an MIC (Staphylococcus aureus [4]) of 20 µg/mL (≈ 17.2 µM).
